Bounds are passed on as bounds.

The test system of the experiment is HBV. The experiment in a line: HepAD38 antiviral assay: reduction of viral product accumulation (virion DNA by qPCR, HBsAg or HBeAg by ELISA). The class given is cell-based, hepatitis B virus. The settings on record: Hepatitis B virus, 120 h; HepAD38 cells, five days after compound addition; 50% reduction of viral product vs no drug controls; read-out: HepAD38 EC50. As to the method: Methods: HepAD38 cells are maintained as previously reported (Ladner et al, Antimicrob. Agents Chemother. 1997, […], 1715). Briefly, cells are passaged upon attaining confluency in DMEM/F12 media in the presence of 10% FBS, Penn/Strep, 250 μg/mL G418, and 1 ug/ml tetracycline. Novel compounds are screened by first washing cells three times with PBS to remove tetracycline, and plating in 96 well plates at 35,000 cells/well. Compounds dissolved in DMSO are then diluted 1:200 into wells containing cells. Five days after compound addition, material is harvested for analysis. For an extended 8 days analysis, cells are plated and treated as described above, but media and compound are refreshed on d2 and d5 post initial treatment.
On harvest day, virion DNA is obtained by lysing with Sidestep Lysis and Stabilization Buffer and then quantified via quantitative real time PCR. Commercially available ELISA kits are used to quantitate the viral proteins HBsAg (Alpco) or HbeAg (US Biological) by following the manufacturer's recommended protocol after diluting samples to match the linear range of their respective assays.
As to `C[C@H](O)CC(=O)NC[C@]1(O)C2CCC1C[C@@H](S(=O)(=O)c1cc(C(=O)Nc3ccc(F)c(F)c3)ccc1Cl)C2` [Example 169], the concentration for a half-maximal effect (EC50) lay in the range of 0.1 to 0.2 µM.

With `O=C(Nc1ccc(F)c(F)c1)c1ccc(Cl)c(S(=O)(=O)[C@@H]2CC3CC[C@@H](C2)[C@@]3(O)C(O)c2ccc(C(F)(F)F)cn2)c1` (some centres unmarked) [Example 300], the EC50 was more than 0.2 µM.

Take `O=C(Nc1ccc(F)c(F)c1)c1ccc(Cl)c(S(=O)(=O)[C@@H]2CC3CC[C@@H](C2)[C@@]3(O)C(O)c2ncccc2C(F)F)c1` (some centres unmarked) [Example 349]: the EC50 lay in the range of 0.1 to 0.2 µM.

For the compound `C[C@]1(O)C2CCC1C[C@@H](S(=O)(=O)c1cc(C(=O)Nc3ccc(F)c(F)c3)c(-c3nccs3)cc1Cl)C2` [Example 157], the EC50 was less than 0.104 µM.

Regarding `C[C@]1(O)C2CCC1C[C@@H](S(=O)(=O)c1cc(C(=O)Nc3cccnn3)ccc1Cl)C2` [Example 213], the EC50 was more than 0.2 µM.

In the case of `O=C(Nc1ccc(F)c(F)c1)c1ccc(Cl)c(S(=O)(=O)[C@H]2CC3CCC(C2)[C@]3(O)CNC(=O)C2CC(O)C2)c1` (some centres unmarked) [Example 171], the EC50 is more than 0.2 µM.

`C[C@@]1(O)C2CC[C@H]1C[C@H](S(=O)(=O)c1cc(C(=O)Nc3ccc(F)c(C(F)(F)F)c3)ccc1Cl)C2` [Example 31]: the EC50 is 0.1 to 0.2 µM.

With `COC(=O)CNC(=O)CC1(O)CC(S(=O)(=O)c2cc(C(=O)Nc3ccc(F)c(F)c3)ccc2Cl)C1` (centres unmarked) [Example 244], the EC50 was more than 0.2 µM.

As for `O=C(Nc1ccc(F)c(F)c1)c1ccc(Cl)c(S(=O)(=O)[C@H]2CC3CC[C@@H](C2)[C@@]3(O)C(O)Cn2ccnc2)c1` (some centres unmarked) [Example 311], the EC50 was more than 0.2 µM.

In the case of `C[C@@H](O)COCC1(O)CCC(CS(=O)(=O)c2cc(C(=O)Nc3ccc(F)c(F)c3)ccc2Cl)CC1` (some centres unmarked) [Example 197], the EC50 was more than 0.2 µM.

With `CC(C)(C1CCC(F)(F)CC1)S(=O)(=O)c1cc(C(=O)Nc2ccc(F)c(F)c2)ccc1Cl` [Example 232], the EC50 was more than 0.2 µM.

In the case of `O=C(Nc1ccc(F)c(F)c1)c1ccc(Cl)c(S(=O)(=O)[C@@H]2CC3C[C@@H](O)C(C2)[C@@]3(O)CO)c1` (some centres unmarked) [Example 328], the EC50 was in the range of 0.1 to 0.2 µM.

Turning to `CC(C)N(C)[C@H]1C2CCC1C[C@H](S(=O)(=O)c1cc(C(=O)Nc3ccc(F)c(F)c3)ccc1Cl)C2` [Example 307], the EC50 fell in the range of 0.1 to 0.2 µM.

Regarding `CCCCc1cc(Cl)c(S(=O)(=O)[C@H]2CC3CCC(C2)[C@@]3(C)O)cc1C(=O)Nc1ccc(F)c(F)c1` [Example 103], the EC50 is less than 0.104 µM.

As for `CC(O)[C@@]1(O)C2CC[C@H]1C[C@H](S(=O)(=O)c1cc(C(=O)Nc3cc(F)c(F)c(F)c3)ccc1Cl)C2` (mixture of isomers) [Example 210], the EC50 was less than 0.104 µM.

`Cc1ccnc([C@@H](O)[C@@]2(O)C3CC[C@H]2C[C@H](S(=O)(=O)c2cc(C(=O)Nc4ccc(F)c(F)c4)ccc2Cl)C3)c1` [Example 296b]: the EC50 was less than 0.104 µM.

In the case of `O=C(Nc1cc(F)c(F)c(F)c1)c1ccc(Cl)c(S(=O)(=O)[C@H]2CC3CCC(C2)[C@]3(O)CNC(=O)[C@H]2CCCO2)c1` [Example 15], the EC50 was less than 0.104 µM.

For `O=C(Nc1ccc(F)c(F)c1)c1ccc(Cl)c(S(=O)(=O)[C@H]2CC3CCC(C2)[C@]3(O)[C@H](O)CO)c1` (single isomer, unassigned) [Example 174], the EC50 is less than 0.104 µM.

Turning to `O=C(Nc1ccc(F)c(F)c1)c1ccc(Cl)c(S(=O)(=O)[C@H]2CC3CCC(C2)[C@]3(O)C(O)CO)c1` (mixture of isomers) [Example 82], the EC50 is less than 0.104 µM.

On to `COC(=O)C1([C@]2(O)C3CCC2C[C@@H](S(=O)(=O)c2cc(C(=O)Nc4cc(F)c(F)c(F)c4)ccc2Cl)C3)COC(C)(C)O1` (some centres unmarked) [Example 202], for which the EC50 was less than 0.104 µM.

As for `CC(C)(O)CNC(=O)C[C@]1(O)CC[C@H](CS(=O)(=O)c2cc(C(=O)Nc3ccc(F)c(F)c3)ccc2Cl)CC1` [Example 196], the EC50 was more than 0.2 µM.

For the compound `COC(=O)[C@H](C)NC(=O)C1CC(S(=O)(=O)c2cc(C(=O)Nc3ccc(F)c(F)c3)ccc2Cl)C1` (some centres unmarked) [Example 255], the EC50 was more than 0.2 µM.

Turning to `O=C(Nc1cc(F)c(F)c(F)c1)c1ccc(Cl)c(S(=O)(=O)[C@H]2CC3CCC(C2)[C@]3(O)CO[C@H]2C[C@@H](O)[C@@H](O)C2)c1` [Example 34], the EC50 is less than 0.104 µM.

With `O=C(O)CCNC(=O)C[C@]1(O)C2CCC1C[C@@H](S(=O)(=O)c1cc(C(=O)Nc3cc(F)c(F)c(F)c3)ccc1Cl)C2` [Example 140], the EC50 was more than 0.2 µM.

Take `COC(=O)[C@H]1C[C@@H](S(=O)(=O)c2cc(C(=O)Nc3ccc(F)c(F)c3)ccc2Cl)C1` [Example 250b]: the 50% effective concentration (EC50) is more than 0.2 µM.

For `COC(=O)NCCC(=O)NC[C@@]1(O)C2CC[C@H]1C[C@H](S(=O)(=O)c1cc(C(=O)Nc3cc(F)c(F)c(F)c3)ccc1Cl)C2` [Example 80], the EC50 is less than 0.104 µM.

In the case of `COC(=O)N[C@@H](C)C(=O)NC[C@]1(O)C2CCC1C[C@@H](S(=O)(=O)c1cc(C(=O)Nc3cc(F)c(F)c(F)c3)ccc1Cl)C2` [Example 48], the EC50 is less than 0.104 µM.

For the compound `O=C(Nc1ccc(F)c(F)c1)c1ccc(Cl)c(S(=O)(=O)C2CC(C(=O)NCCCO)C2)c1` (centres unmarked) [Example 258], the half-maximal effective concentration (EC50) is more than 0.2 µM.

In the case of `O=C(Nc1cc(F)c(F)c(F)c1)c1ccc(Cl)c(S(=O)(=O)[C@@H]2CC3CC[C@@H](C2)[C@@]3(O)CNC(=O)C2CC2(O)CO)c1` (some centres unmarked) [Example 67], the EC50 was more than 0.2 µM.

With `C[C@@H](O)COCC1(O)CC(CS(=O)(=O)c2cc(C(=O)Nc3ccc(F)c(F)c3)ccc2Cl)C1` (some centres unmarked) [Example 209], the EC50 was more than 0.2 µM.

As for `COCCNC(=O)C[C@]1(O)C2CCC1C[C@@H](S(=O)(=O)c1cc(C(=O)Nc3ccc(F)c(F)c3)ccc1Cl)C2` [Example 190], the EC50 was less than 0.104 µM.

With `O=C(Nc1cc(F)c(F)c(F)c1)c1ccc(Cl)c(S(=O)(=O)[C@H]2CC3CCC(C2)[C@]3(O)CNC(=O)[C@@H]2CCCO2)c1` (single isomer, unassigned) [Example 14], the EC50 is less than 0.104 µM.

Regarding `COC(=O)CCNC(=O)[C@H]1C[C@@H](S(=O)(=O)c2cc(C(=O)Nc3ccc(F)c(F)c3)ccc2Cl)C1` [Example 257b], the EC50 is more than 0.2 µM.

Turning to `C[C@@]1(O)C2CC[C@H]1C[C@H](S(=O)(=O)c1cc(C(=O)Nc3cnccn3)ccc1Cl)C2` [Example 214], the EC50 is more than 0.2 µM.

Consider `CC(C)([C@H]1CC[C@](C)(O)CC1)S(=O)(=O)c1cc(C(=O)Nc2ccc(F)c(F)c2)ccc1Cl` [Example 238], for which the EC50 was more than 0.2 µM.

Regarding `O=C1NCC([C@H](O)[C@@H](O)[C@]2(O)C3CCC2C[C@@H](S(=O)(=O)c2cc(C(=O)Nc4ccc(F)c(F)c4)ccc2Cl)C3)O1` (some centres unmarked) [Example 348], the EC50 was less than 0.104 µM.

`COC(=O)CNC(=O)[C@H]1C[C@H](S(=O)(=O)c2cc(C(=O)Nc3ccc(F)c(F)c3)ccc2Cl)C1` [Example 253a]: the EC50 is more than 0.2 µM.

Regarding `O=C(Nc1ccc(F)c(F)c1)c1ccc(Cl)c(S(=O)(=O)C2CC(O)(CO)C2)c1` (centres unmarked) [Example 220], the EC50 was more than 0.2 µM.

With `O=C(Nc1ccc(F)c(F)c1)c1ccc(Cl)c(S(=O)(=O)[C@@H]2CC3CC[C@@H](C2)[C@@]3(O)Cn2ccc(=O)[nH]c2=O)c1` [Example 305], the EC50 is less than 0.104 µM.

For the compound `C[C@]1(O)C2CCC1C[C@@H](S(=O)(=O)c1cc(C(=O)Nc3ccnnc3)ccc1Cl)C2` [Example 212], the EC50 is more than 0.2 µM.

As for `O=C(C[C@]1(O)C2CCC1C[C@@H](S(=O)(=O)c1cc(C(=O)Nc3ccc(F)c(F)c3)ccc1Cl)C2)NCCO` [Example 184], the EC50 is less than 0.104 µM.

The term EC50 denotes the concentration giving half of the maximal effect.

The record behind these values is patent US11596611B2, “Hepatitis B antiviral agents” (ENANTA PHARMACEUTICALS, INC., priority 2017, dated 2023).
